This is an account of results in patent US7385395B2, “Apparatus for preparing a solution of a hyperpolarized noble gas for NMR and MRI analysis” (priority 1996, dated 2008).

The structures appear in SMILES notation. Read-outs that look alike come from different tables or passages of the source.

In data set [1] the test system is red blood cell (RBC). Particulars: room temperature; Herbst et al. 1989; cited from earlier work.
The test system of the next data set is human blood. Nature of the data set: 129Xe NMR relaxation and signal of xenon delivered to human blood / red blood cell sample in vitro. Format: in vitro ADME.
For data set [2] the following is noted: rat, in vivo.
Experimental: Male rats weighing 200-250 grams were anesthetized by intramuscular injection of ketamine/xylazine/acepromazine (30/3/0.6 mg/kg). Supplemental intramuscular doses were administered as needed to maintain anesthesia. A venous catheter was placed into a tail vein, and the receiver/transmitter surface coil was placed over the heart and liver (FIG. 18). Acquisitions began at start of the injection. Prior to each experiment the rat was placed in lateral recumbency into the magnet. At the conclusion of each experiment, the catheter was removed and the rat was returned to its cage to recover from anesthesia.
The ^129Xe NMR spectra were obtained on a home-built NMR spectrometer interfaced with a Bruker 2.35 T magnet (xenon frequency: 27.68 MHz, bore diameter: 25 cm). […] For the spectroscopy experiment, spectra were obtained every second (pulse angle: ≈20°).
The rats, anesthesia and apparatus were as described in Example 10, above.
Data set [3] concerns red blood cell (RBC).
Experimental: NMR spectra were measured on a CMX Infinity spectrometer (Chemamagnetics-Otsuka Electronics, Fort Collins, Colo., U.S.A.) at a magnetic field of 4.3 Tesla.
The xenon exchange rate between the extracellular and intracellular compartments of a RBC/saline/plasma sample was measured by selectively inverting the xenon saline/plasma NMR line and observing the recovery of the two signals. The selective inversion was achieved by an amplitude-modulated Gaussian pulse of 1 ms duration centered at the frequency of the saline/plasma signal. […] A field gradient pulse of 1 ms was applied after the inversion pulse to dephase any components of the transverse magnetization. After the inversion pulse, xenon spectra were taken at fixed time intervals using a small tipping angle (20°). Following the addition of the xenon/saline solution into the RBC sample, a delay of 3 seconds before the application of the inversion pulse insured that the xenon/RBC system was well mixed and equilibrated.
[formula] where τRBC and τp1 are residence time constants for xenon in the RBC and saline/plasma, and 1/τ=1/τRBC+1/τp1. S^oRBC and S^op1 are the initial intensities for the RBC and the plasma/saline components, respectively, immediately after the inversion pulse. The effect of the spin-lattice relaxation is neglected since τ<<T1, making S^oRBC+S^op1 a constant during the exchange process.
A short description of data set [4]: 129Xe spin-lattice relaxation time (T1) of hyperpolarized xenon in solution. Format: physicochemical. The procedure:
The design of the shaker used in the dissolution stage for xenon mixing and delivery is illustrated in FIG. 1. The shaker has a small sidearm which can be isolated from the main volume by a stopcock. The shaker is charged with a sample of either normal abundance or isotopically enriched xenon (80% ^129Xe, EG&G Mound, Miamisburg, Ohio, U.S.A.). Laser polarization is performed prior to admitting the xenon to the shaker. Briefly, approximately 5×10^−4 mol of 80. % isotopically enriched ^129Xe was optically pumped in a 30 cc cylindrical glass pumping cell (diameter≈30 mm). Before optical pumping, the cell was cleaned and coated with SURFASIL® (Pierce Chemical Co., Florence, Mass., U.S.A.); the cell was then evacuated to 10^−6 torr and loaded with one drop of melted rubidium metal in a dry nitrogen environment. Optical pumping was performed with a 1.3 W continuous-wave Ti:sapphire laser (794.7 nm) for 20-30 min, and the temperature of the cell was maintained at 60-80° C. by a temperature-controlled nitrogen gas stream. Typically, the apparatus produces xenon polarization levels in the range of 5-10%.
Following laser polarization, the polarized ^129Xe is frozen at liquid nitrogen temperatures in the sidearm in a magnetic field of approximately 50 mT provided by a small permanent magnet. The magnetic field is used in the freezing stage to prevent the decay of xenon polarization. The xenon is sublimated and then admitted into the solution. The small size of the shaker allows for the accumulation of several atmospheres of xenon pressure which aids in increasing the xenon concentration in the solution. During the dissolution procedure, the vessel is vigorously shaken to help dissolve the xenon gas. The resulting xenon solution is extracted with a syringe through a high-pressure rubber septum. In those examples below wherein a solution NMR study is performed on an in vitro sample, the xenon is immediately injected into an NMR tube which contains the sample to be studied.
Solutions of hyperpolarized ^129Xe in partially deuterated benzene (25% C6D5H, 75% C6D6) were prepared as described above for saline solutions of ^129Xe with the exception that the shaker was charged with the benzene solution rather than saline. Typically, 4×10^−4 mol of enriched ^129Xe (80%, EG&G Mound) were used in one experiment at a pressure of 1 atm. ^129Xe NMR was performed at 51 MHz on a Quest 4300 spectrometer (Nalorac Cryogenics, Martinez, Calif., U.S.A.) with a home built probe and a tipping angle of 3°. ^1H NMR was performed at 185 MHz with a home built probe and a tipping angle of 3°.
Hyperpolarized xenon and mixtures of hyperpolarized xenon and cyclodextrins were prepared generally as discussed above. SPINOE signals of 0.05 M cyclodextrin solutions in deuterated DMSO were measured as described above in Example 8.

For data set [5] the following is noted: in saline; STP volume of xenon dissolved in 1 liter of liquid at 1 atm gas pressure; cited from earlier work.
Where [6] appears, read: selective inversion experiment, 4.3 Tesla.

Experimental for human blood: The portion removed accounted for approximately 30% of the total volume of the blood sample. Following removal of a portion of the plasma, xenon saturated saline (1 mL) was injected into the red blood cell (RBC) sample (1 mL) and the ^129Xe NMR was measured. The NMR spectra were measured on a Bruker AM-400 spectrometer.
By using short rf pulses of small tipping angle, ^129Xe NMR spectra were acquired as a function of time after injection of the xenon/saline mixture into the blood. NMR spectra were measured on a Bruker AM-400 spectrometer.
A solution of hyperpolarized xenon in […] ® was prepared in the same manner as described for the saline solution of hyperpolarized xenon, however, the shaker was charged with […] ® rather than saline. […] The […] ® solution was charged with laser polarized ^129Xe and an aliquot (1 mL) of this solution was added to human blood (1 mL). The spectra were obtained on a Bruker AM-400 spectrometer.
A solution of hyperpolarized xenon in FLUOSOL® was prepared in the same manner as described for the saline solution of hyperpolarized xenon, however, the shaker was charged with FLUOSOL® rather than saline. The FLUOSOL® solution was charged with laser polarized ^129Xe and an aliquot (1 mL) of this solution was added to human blood (1 mL). The spectra were obtained on a Bruker AM-400 spectrometer.

Turning to `O` [water], the “residence time constant in the RBC, τRBC” value in the data set with red blood cell (RBC) [1] was 12 ± 2 ms.
As to `[Xe]` [xenon], the “T1 of the narrow peak” value in the data set with human blood (xenon/FLUOSOL solution 1 mL added to human blood 1 mL, 216 ppm RBC peak) stood at 13 ± 1 s. Also, in the data set on human blood (xenon/INTRALIPID solution 1 mL added to human blood 1 mL), the “T1 decay time of the signal at 194 ppm” value is given as 16 s. Further, the “T1 decay time relative to xenon in saline water/blood mixture” value with human blood (xenon/INTRALIPID solution in blood, 194 ppm signal) is listed as “approximately 3 fold”. The “time of maximum xenon signal intensity after start of injection” value in data set [2] came to 7 s. Also, in the data set on red blood cell (RBC) [3], the “equilibrium distribution of the integral of the two peaks (RBC vs saline/plasma)” value was “approximately 50%”; the “ratio of integrated intensities of broad (FLUOSOL) and narrow (RBC) peaks” value is recorded as “approximately 3”; the “ratio of peak of xenon in INTRALIPID solution to peak of intracellular xenon” value was “approximately 6:1”. Further, in the data set on red blood cell (RBC) [3] (setting [6]), the “residence time constant in saline/plasma, τpl” value is 29.1 ± 2 ms and the “residence time constant in the RBC, τRBC” value was determined as 20.4 ± 2 ms. In addition, in the data set with red blood cell (RBC) [3] (selective inversion of saline/plasma line, 4.3 Tesla), the “exchange time constant τ (1/τ=1/τRBC+1/τpl)” value is 12.0 ± 1 ms. Further, the “129Xe T1” value in data set [4] (0.1 M p-nitrotoluene in deuterated benzene) is greater than 500 s. Further, the “129Xe T1” value in data set [4] (0.1 M α-cyclodextrin solution in deuterated DMSO) was found to be 20 s. For the same molecule, the T1 of xenon in data set [4] (H2O/saline (0.9% NaCl), 9.4 T) turned out to be 66 s. In addition, the “xenon T1” value in data set [4] (in INTRALIPID solution) was found to be 40 ± 3 s. Further, the “observed spin-lattice relaxation time of 129Xe in solution” value in data set [4] (normal benzene, combination of gas and solution relaxation times) was roughly 200 s. Moreover, the “observed spin-lattice relaxation time of 129Xe in solution” value in data set [4] (partially deuterated benzene (25% C6D5H, 75% C6D6)) was roughly 1000 s. The T1 of xenon result in data set [4] (saline made with D2O) is “≈ 1000 s”. Moreover, the Ostwald coefficient in data set [5] was 0.0926.
